Experimental data reported in the supplement of paper PMC10307832.

Tests used:
Experiment in all cases: relative viability (nuclei count vs DMSO), 5 days (fraction); higher = more cells survive
EMC-BAC-2 = test system: EMC-BAC-2
Summary of the method: (§1)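 Lung cancer cell lines were seeded in 1536-well plates and dosed by pin tool the next day, with either a single drug or a fixed anchor-drug dose combined with five library-drug doses (not always all listed) spaced in √10 steps. Five days later, one step fixed the cells and stained their nuclei (final 0.05% Triton X-100, 1% formaldehyde, 1 ug/ml Hoechst), and nuclei were counted on 4× images. Relative viability is the nuclei count in treated wells divided by the count in vehicle wells, and each value is the median of duplicate plates.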

EPLC-272H = test system: EPLC-272H
Summary of the method: as §1

H3255 = test system: H3255
Summary of the method: as §1

HOP-62 = test system: HOP-62
Summary of the method: as §1

LCLC-97TM1 = test system: LCLC-97TM1
Summary of the method: as §1

LXF-289 = test system: LXF-289
Summary of the method: as §1

NCI-H1563 = test system: NCI-H1563
Summary of the method: as §1

NCI-H1650 = test system: NCI-H1650
Summary of the method: as §1

NCI-H1915 = test system: NCI-H1915
Summary of the method: as §1

NCI-H1993 = test system: NCI-H1993
Summary of the method: as §1

NCI-H2009 = test system: NCI-H2009
Summary of the method: as §1

NCI-H2023 = test system: NCI-H2023
Summary of the method: as §1

NCI-H2085 = test system: NCI-H2085
Summary of the method: as §1

NCI-H2126 = test system: NCI-H2126
Summary of the method: as §1

NCI-H2342 = test system: NCI-H2342
Summary of the method: as §1

NCI-H2347 = test system: NCI-H2347
Summary of the method: as §1

NCI-H322M = test system: NCI-H322M
Summary of the method: as §1

NCI-H647 = test system: NCI-H647
Summary of the method: as §1

NCI-H661 = test system: NCI-H661
Summary of the method: as §1

NCI-H727 = test system: NCI-H727
Summary of the method: as §1

PC-14 = test system: PC-14
Summary of the method: as §1

SK-LU-1 = test system: SK-LU-1
Summary of the method: as §1

SW 1573 = test system: SW 1573
Summary of the method: as §1

CC1(C)CCC(c2ccc(Cl)cc2)=C(CN2CCN(c3ccc(C(=O)NS(=O)(=O)c4ccc(N[C@H](CCN5CCOCC5)CSc5ccccc5)c(S(=O)(=O)C(F)(F)F)c4)cc3)CC2)C1 [Navitoclax] + COc1cc2c(Oc3ccc(NC(=O)C4(C(=O)Nc5ccc(F)cc5)CC4)cc3F)ccnc2cc1OCCCN1CCOCC1 [Foretinib] (partner 0.25 µM)
relative viability (EMC-BAC-2; first compound 0.005 µM): 1.07
relative viability (EMC-BAC-2; first compound 0.01581 µM): 1.14
relative viability (EMC-BAC-2; first compound 0.05 µM): 0.96
relative viability (EMC-BAC-2; first compound 0.1581 µM): 1.01
relative viability (EMC-BAC-2; first compound 0.5 µM): 1.05
relative viability (EPLC-272H; first compound 0.005 µM): 0.707
relative viability (EPLC-272H; first compound 0.05 µM): 0.766
relative viability (EPLC-272H; first compound 0.1581 µM): 0.712
relative viability (EPLC-272H; first compound 0.5 µM): 0.764
relative viability (H3255; first compound 0.005 µM): 0.884
relative viability (H3255; first compound 0.01581 µM): 0.973
relative viability (H3255; first compound 0.05 µM): 0.764
relative viability (H3255; first compound 0.1581 µM): 0.861
relative viability (H3255; first compound 0.5 µM): 0.787
relative viability (HOP-62; first compound 0.005 µM): 1.07
relative viability (HOP-62; first compound 0.01581 µM): 1.15
relative viability (HOP-62; first compound 0.05 µM): 1.19
relative viability (HOP-62; first compound 0.1581 µM): 1.02
relative viability (HOP-62; first compound 0.5 µM): 1.02
relative viability (LCLC-97TM1; first compound 0.005 µM): 0.972
relative viability (LCLC-97TM1; first compound 0.01581 µM): 0.984
relative viability (LCLC-97TM1; first compound 0.05 µM): 0.831
relative viability (LCLC-97TM1; first compound 0.1581 µM): 0.985
relative viability (LCLC-97TM1; first compound 0.5 µM): 0.921
relative viability (LXF-289; first compound 0.005 µM): 1.05
relative viability (LXF-289; first compound 0.01581 µM): 0.981
relative viability (LXF-289; first compound 0.05 µM): 0.924
relative viability (LXF-289; first compound 0.1581 µM): 0.93
relative viability (LXF-289; first compound 0.5 µM): 0.966
relative viability (NCI-H1563; first compound 0.005 µM): 0.948
relative viability (NCI-H1563; first compound 0.01581 µM): 0.967
relative viability (NCI-H1563; first compound 0.05 µM): 0.856
relative viability (NCI-H1563; first compound 0.1581 µM): 0.987
relative viability (NCI-H1563; first compound 0.5 µM): 1.03
relative viability (NCI-H1650; first compound 0.005 µM): 1.08
relative viability (NCI-H1650; first compound 0.01581 µM): 1.48
relative viability (NCI-H1650; first compound 0.05 µM): 1.12
relative viability (NCI-H1650; first compound 0.1581 µM): 1.28
relative viability (NCI-H1650; first compound 0.5 µM): 0.953
relative viability (NCI-H1915; first compound 0.005 µM): 1.08
relative viability (NCI-H1915; first compound 0.01581 µM): 1.12
relative viability (NCI-H1915; first compound 0.05 µM): 1.11
relative viability (NCI-H1915; first compound 0.1581 µM): 1.02
relative viability (NCI-H1915; first compound 0.5 µM): 1.07
relative viability (NCI-H1993; first compound 0.005 µM): 0.854
relative viability (NCI-H1993; first compound 0.01581 µM): 0.938
relative viability (NCI-H1993; first compound 0.05 µM): 0.687
relative viability (NCI-H1993; first compound 0.1581 µM): 0.839
relative viability (NCI-H1993; first compound 0.5 µM): 0.862
relative viability (NCI-H2009; first compound 0.005 µM): 1.22
relative viability (NCI-H2009; first compound 0.01581 µM): 1.29
relative viability (NCI-H2009; first compound 0.05 µM): 1.26
relative viability (NCI-H2009; first compound 0.1581 µM): 1.26
relative viability (NCI-H2009; first compound 0.5 µM): 1.27
relative viability (NCI-H2023; first compound 0.005 µM): 0.912
relative viability (NCI-H2023; first compound 0.01581 µM): 1.12
relative viability (NCI-H2023; first compound 0.05 µM): 0.819
relative viability (NCI-H2023; first compound 0.1581 µM): 0.848
relative viability (NCI-H2023; first compound 0.5 µM): 0.995
relative viability (NCI-H2085; first compound 0.005 µM): 0.92
relative viability (NCI-H2085; first compound 0.01581 µM): 0.98
relative viability (NCI-H2085; first compound 0.05 µM): 0.989
relative viability (NCI-H2085; first compound 0.1581 µM): 0.863
relative viability (NCI-H2085; first compound 0.5 µM): 0.836
relative viability (NCI-H2126; first compound 0.005 µM): 1.25
relative viability (NCI-H2126; first compound 0.01581 µM): 1.17
relative viability (NCI-H2126; first compound 0.1581 µM): 1.14
relative viability (NCI-H2126; first compound 0.5 µM): 1.19
relative viability (NCI-H2342; first compound 0.005 µM): 1.19
relative viability (NCI-H2342; first compound 0.01581 µM): 1.22
relative viability (NCI-H2342; first compound 0.05 µM): 0.871
relative viability (NCI-H2342; first compound 0.1581 µM): 1.1
relative viability (NCI-H2342; first compound 0.5 µM): 1.16
relative viability (NCI-H2347; first compound 0.005 µM): 1.42
relative viability (NCI-H2347; first compound 0.05 µM): 0.652
relative viability (NCI-H2347; first compound 0.1581 µM): 0.665
relative viability (NCI-H2347; first compound 0.5 µM): 0.913
relative viability (NCI-H322M; first compound 0.005 µM): 1.03
relative viability (NCI-H322M; first compound 0.01581 µM): 1.19
relative viability (NCI-H322M; first compound 0.05 µM): 0.795
relative viability (NCI-H322M; first compound 0.1581 µM): 0.992
relative viability (NCI-H322M; first compound 0.5 µM): 1.1
relative viability (NCI-H647; first compound 0.005 µM): 1.22
relative viability (NCI-H647; first compound 0.01581 µM): 1.38
relative viability (NCI-H647; first compound 0.05 µM): 1.27
relative viability (NCI-H647; first compound 0.1581 µM): 1.24
relative viability (NCI-H647; first compound 0.5 µM): 1.27
relative viability (NCI-H661; first compound 0.005 µM): 0.984
relative viability (NCI-H661; first compound 0.01581 µM): 1.06
relative viability (NCI-H661; first compound 0.05 µM): 0.87
relative viability (NCI-H661; first compound 0.1581 µM): 0.988
relative viability (NCI-H661; first compound 0.5 µM): 1
relative viability (NCI-H727; first compound 0.005 µM): 1.12
relative viability (NCI-H727; first compound 0.01581 µM): 0.902
relative viability (NCI-H727; first compound 0.1581 µM): 0.829
relative viability (NCI-H727; first compound 0.5 µM): 0.858
relative viability (PC-14; first compound 0.005 µM): 0.898
relative viability (PC-14; first compound 0.01581 µM): 0.981
relative viability (PC-14; first compound 0.05 µM): 1.27
relative viability (PC-14; first compound 0.1581 µM): 0.941
relative viability (PC-14; first compound 0.5 µM): 0.838
relative viability (SK-LU-1; first compound 0.005 µM): 0.928
relative viability (SK-LU-1; first compound 0.01581 µM): 0.954
relative viability (SK-LU-1; first compound 0.05 µM): 0.953
relative viability (SK-LU-1; first compound 0.1581 µM): 0.772
relative viability (SK-LU-1; first compound 0.5 µM): 0.741
relative viability (SW 1573; first compound 0.005 µM): 1.06
relative viability (SW 1573; first compound 0.01581 µM): 1
relative viability (SW 1573; first compound 0.05 µM): 0.922
relative viability (SW 1573; first compound 0.1581 µM): 1.02
relative viability (SW 1573; first compound 0.5 µM): 1.04
